Assay results: patent US20250002487A1, “HETEROCYCLIC COMPOUNDS AND USES THEREOF” (Ventus Therapeutics U.S., Inc., priority 2021, published 2025)

Biological target: human-cGAS (h-cGAS) (Homo sapiens, UniProt Q8N884)
Assay: hcGAS Kinase-Glo Assay
Type: biochemical
Settings: 40 nM h-cGAS, 100 μM ATP, 100 μM GTP, 25 nM dsDNA, 3 h incubation, read-out: hcGAS potency IC50
Method in brief: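 Kinase-Glo luminescent read-out of human cGAS activity, following the published Lama et al. (2019) protocol with slightly altered conditions. Inhibition reported as IC50.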

Chain of human-cGAS (h-cGAS) (Q8N884 whole entry): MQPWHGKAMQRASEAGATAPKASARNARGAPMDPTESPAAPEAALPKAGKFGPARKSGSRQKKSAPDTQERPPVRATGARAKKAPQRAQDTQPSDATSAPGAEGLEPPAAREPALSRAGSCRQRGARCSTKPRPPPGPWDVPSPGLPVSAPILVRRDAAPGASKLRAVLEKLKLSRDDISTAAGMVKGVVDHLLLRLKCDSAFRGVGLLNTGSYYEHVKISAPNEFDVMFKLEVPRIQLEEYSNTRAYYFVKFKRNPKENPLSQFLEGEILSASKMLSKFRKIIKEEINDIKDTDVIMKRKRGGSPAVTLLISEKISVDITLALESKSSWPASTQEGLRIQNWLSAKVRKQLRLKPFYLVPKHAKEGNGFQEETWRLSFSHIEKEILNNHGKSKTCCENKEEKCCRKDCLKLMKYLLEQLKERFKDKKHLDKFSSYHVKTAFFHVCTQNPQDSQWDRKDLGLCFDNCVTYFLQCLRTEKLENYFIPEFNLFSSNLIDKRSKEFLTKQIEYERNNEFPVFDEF

Row | IC50 [nM] | Structure (SMILES)
1 | ≥ 1000 | CSc1nnc(NC(=O)c2nnc(N3CCC3c3ccccc3)o2)s1 (centres unmarked) [Compound 74, N-(5-(methylthio)-1,3,4-thiadiazol-2-yl)-5-(2-phenylazetidin-1-yl)-1,3,4-oxadiazole-2-carboxamide]
2 | 100 to 500 | O=C(Nc1nnc(C(F)(F)F)s1)c1onc2c1ccc1cccnc12 [Compound 12, N-(5-(trifluoromethyl)-1,3,4-thiadiazol-2-yl)isoxazolo[4,3-h]quinoline-3-carboxamide]
3 | ≥ 1000 | CSc1nnc(NC(=O)c2nnc(N3CCCC(O)C3)o2)s1 (centres unmarked) [Compound 109, 5-(3-hydroxypiperidin-1-yl)-N-(5-(methylthio)-1,3,4-thiadiazol-2-yl)-1,3,4-oxadiazole-2-carboxamide]
4 | < 100 | O=C(O)c1cc(C(=O)Nc2nnc(-c3ccccc3Cl)s2)on1 [Compound 2, 5-((5-(2-chlorophenyl)-1,3,4-thiadiazol-2-yl)carbamoyl)isoxazole-3-carboxylic acid]
5 | 500 to 1000 | COC(=O)c1cc(C(=O)Nc2nnc(SC)s2)on1 [Compound 15, methyl 5-((5-(methylthio)-1,3,4-thiadiazol-2-yl)carbamoyl)isoxazole-3-carboxylate]
6 | 500 to 1000 | CSc1nnc(NC(=O)c2cc(-c3ccccc3-c3ccc(CC(=O)O)cc3)cc(=O)o2)s1 [Compound 176]
7 | 100 to 500 | O=C(Nc1nnc(-c2ccccc2Br)s1)c1onc2ccccc12 [Compound 144, N-[5-(2-bromophenyl)-1,3,4-thiadiazol-2-yl]-2,1-benzoxazole-3-carboxamide]
8 | < 100 | CONC(=O)c1cc(C(=O)Nc2nnc(-c3ccccc3Cl)s2)on1 [Compound 91, N5-(5-(2-chlorophenyl)-1,3,4-thiadiazol-2-yl)-N3-methoxyisoxazole-3,5-dicarboxamide]
9 | 500 to 1000 | CSc1nnc(NC(=O)c2nnc(N3CCCC(C)(C)C3)o2)s1 [Compound 119, 5-(3,3-dimethylpiperidin-1-yl)-N-(5-(methylthio)-1,3,4-thiadiazol-2-yl)-1,3,4-oxadiazole-2-carboxamide]
10 | 100 to 500 | CSc1nnc(NC(=O)c2cc(-c3ccccc3Cl)cc(=O)o2)s1 [Compound 251, 4-(2-chlorophenyl)-N-(5-methylsulfanyl-1,3,4-thiadiazol-2-yl)-6-oxo-pyran-2-carboxamide]
11 | ≥ 1000 | CSc1nnc(NC(=O)c2nnc(Cc3cccc(Cl)c3)o2)s1 [Compound 44, 5-(3-chlorobenzyl)-N-(5-(methylthio)-1,3,4-thiadiazol-2-yl)-1,3,4-oxadiazole-2-carboxamide]
12 | 100 to 500 | COCc1cc(C(=O)Nc2nnc(-c3ccccc3Cl)s2)on1 [Compound 170, N-(5-(2-chlorophenyl)-1,3,4-thiadiazol-2-yl)-3-(methoxymethyl)isoxazole-5-carboxamide]
13 | 500 to 1000 | O=C(Nc1nnc(-c2ccccc2Cl)s1)c1nc[nH]n1 [Compound 58, N-(5-(2-chlorophenyl)-1,3,4-thiadiazol-2-yl)-1H-1,2,4-triazole-3-carboxamide]
14 | 100 to 500 | CSc1nnc(NC(=O)c2cc(-c3cccc(Cl)c3)cc(=O)o2)s1 [Compound 240, 4-(3-chlorophenyl)-N-(5-methylsulfanyl-1,3,4-thiadiazol-2-yl)-6-oxo-pyran-2-carboxamide]
15 | ≥ 1000 | CSc1nnc(NC(=O)c2nnn(Cc3cccnc3)n2)s1 [Compound 135, N-(5-(methylthio)-1,3,4-thiadiazol-2-yl)-2-(pyridin-3-ylmethyl)-2H-tetrazole-5-carboxamide]
16 | 100 to 500 | CSc1nsc(NC(=O)c2onc3c2ccc2cccnc23)n1 [Compound 11, N-(3-(methylthio)-1,2,4-thiadiazol-5-yl)isoxazolo[4,3-h]quinoline-3-carboxamide]
17 | ≥ 1000 | CSc1nnc(NC(=O)c2onc3c2CCCC3=O)s1 [Compound 195, N-(5-(methylthio)-1,3,4-thiadiazol-2-yl)-7-oxo-4,5,6,7-tetrahydrobenzo[c]isoxazole-3-carboxamide]
